Assay results as given in patent EP0292365A2, “4-Amino-5,8-quinazolindione derivatives, process for their preparation and pharmaceutical compositions containing them” (CENTRE NATIONAL DE LA RECHERCHE SCIENTIFIQUE, priority 1987, dated 1988).
Where two headings read alike, the source gives them in different places.

Key:
réticulosarcome M 5076 = assay: First trials on reticulosarcoma M 5076; type: in vivo; settings: souris; doses infratoxique; premiers essais
Leucémie L1210 = type: in vivo, souris DBA/2; settings: for survivants 30 jours / Δ P J1-J5 / T/C / Doses actives (T/C ≥ 125 %): L1210, greffe ip(10^5cel.); for T/C: survivants inclus
From the text: Afin de tester l'activité antitumorale des composés décrits plus haut, on a utilisé les leucémies murines P388 et L1210, ainsi que le mélanome murin B16. La leucémie P388 est considère comme très sensible et permet une première sélection. D'autre part, une substance ayant une grande activité sur la leucémie L1210 a une grande chance d'être active en clinique humaine (J.M. Venditti; Relevance of transplantable animal tumor systems to the Selection of new agents for clinical trial in pharmacological basis of cancer chemotherapy. The University of Texas ed. Williams and Wilkins, publ. 1975, Baltimore USA).
La leucémie L1210 de la souris est en effet couramment utilisée pour l'évaluation de tous les composés antitumoraux actuellement mis en oeuvre en thérapeutique humaine, ainsi qu'il est décrit, par exemple par C.C. Zubrod dans Proc. Nat. Acad. Sci. USA 69, 1972, p. 1042-1047. Le système tumoral ainsi constitué expérimentalement permet une évaluation quantitative très précise de l'activité du composé testé, et, par conséquent aussi, une comparaison objective entre les activités respectives de différents composés, par exemple selon les méthodes décrites par R. E. Skipper, F. M. Schabel, Jr. et W. S. Wilcox dans Cancer Chemother. Rep., 35, 1964, p. 1-111 et 45, 1965, p.5-28.
Cette étude a été réalisée sur 1, 2 ou 3 tumeurs murines expérimentales selon le schéma suivant :
Les produits en solution dans l'eau ou en suspension dans du Klucel sont administrés par voie intrapéritonéale 24 heures après la greffe des cellules tumorales (10 animaux par série), soit en injection unique (J1), soit pendant 9 jours consécutifs (Ji-9). Les morts sont relevés chaque jour à la même heure. La comparaison du temps médian de survie des souris témoins (C) et des souris traitées (T) permet d'apprécier l'activité antitumorale du produit. On adopte comme critère d'activité minimale la valeur de T/C supérieure ou égale à 125 % conformément aux critères établis par GERAN et par l'O.M.S. (Réf. GERAN R.I., GREENBERG N.H., MACDONALD M.M., SCHUMACHER A.M. and ABBOTT B.J. Protocols for screening chemical agents and natural products against animal tumors and other biological systems. Cancer Chemother. Rep. Part 3, 3, 1-103 (1972)).
Lorsque le composé est actif sur plusieurs tumeurs, son administration par d'autres voies que la voie intrapéritonéale (i.p.) est envisagée : orale (p.o) et intraveineuse (i.v). Les résultats des essais effectués à l'aide du composé 63 sont rassemblés dans le tableau IV ci-après.
Dans les tableaux IV et IV Bis, P représentent la variation de poids entre J1 et J5 des animaux traités; lorsque P est supérieure à environ 4 g, cela signifie que la dose à laquelle le composé a été testé est toxique.

cellules de lignée HBL = assay: Effect on in vitro cell growth, HBL line (Feulgen staining, automated scanning microscopy); type: cell-based, humaine; settings: for nombre de cellules observées par champ de microscope: HBL
Experimental: Les cellules tumorales en croissance exponentielle sont ensemencées (10.000 cellules/ml) dans des boîtes à Petri contenant au fond de la boîte un couvre-objet (18 x 18 mm) et 3 ml de MEM (MEM = milieu essentiel minimum) + 5 % FCS (FCS = serum de veau fetal) (v/v). Après 24 heures d'incubation, quand les cellules sont bien attachées au fond de la boîte, le milieu est remplacé par MEM expérimental contenant 5 % FCS (v/v) et enrichi, par exemple de : • a) 3 ml du milieu (MEM + 5 % FCS) = témoins • b) 3 ml du milieu contenant une dose élevée du composé à tester : 10 µg/ml : (M) • c) milieu contenant une faible dose du composé à tester : 0.01 µg/ml (f) respectivement aux jours 1, 2, 3 et 4 après addition du milieu expérimental dans les boîtes de Petri. Trois couvre-objets sont fixés pour chaque condition expérimentale : éthanol 95° (75 v), formol neutre à 40 % (20 v), acide acétique (5 v), pendant 10 minutes. Les cellules témoins cultivées dans le milieu expérimental sans le produit à tester sont fixées au même moment. A la fin de la fixation, les couvre-objets sont retournés et montés sur des lames histologiques à l'aide de produit commercialisé sous la marque DPX par la Société British Drug House et conservés à l'abri de la lumière et à 4° en attendant d'être colorés.
Les lames avec les couvre-objets sont colorées par une réaction de Feulgen modifiée. Toutes les lames d'une condition expérimentale sont conditionnées par le réactif de Feulgen en même temps, pendant une heure, après hydrolyse dans un milieu HCI 6N pendant une heure à 20° C. Les préparations cellulaires sont ensuite conservées à l'abri de la lumière et à 4°C en attendant l'analyse.
Grâce à un système d'analyse microscopique à balayage automatique, on détermine l'effet de la drogue sur la croissance cellulaire, au cours du temps, sur deux lignées cellulaires tumorales d'origine humaine : la lignée MCF-7 d'origine mammaire et la lignée HBL (mélanome malin).
On a représenté dans le tableau C les résultats relatifs à l'action du composé 63 sur la croissance des cellules de lignée MCF-7 et dans le tableau C BIS, les résultats relatifs à l'action du composé 63 sur la croissance des cellules de lignée HBL. Ces résultats montrent le nombre de cellules survivant au traitement après 1, 2, 3 et 4 jours d'incubation et à trois doses différentes (10 µg/ml, 1 µg/ml et 0,1 µg/ml).
Chaque chiffre correspond au nombre de cellules observées par champ de microscope.

[1] = ip J1-9, dose optimale 0,4 mg/kg/inj.
[2] = ip J1, dose optimale 2 mg/kg/inj.

`CN(C)CCCNc1ncnc2c1C(=O)C(N1CC1)=C(N1CC1)C2=O` [composé 63] was tested, and the “activité sur le réticulosarcome M 5076” value (réticulosarcome M 5076) was “nette activité”, the “survivants 30 jours” value (Leucémie L1210; [1]) was 1 and the “Δ P J1-J5” value (Leucémie L1210; [1]) was -1,6 g. The T/C (Leucémie L1210; [1]) was 174%, the “survivants 30 jours” value (Leucémie L1210; [2]) was 1 and the “Δ P J1-J5” value (Leucémie L1210; [2]) was -2,8 g. For the same molecule, the T/C (Leucémie L1210; [2]) was 160%, the “Doses actives (T/C ≥ 125 %)” value (Leucémie L1210; traitement ip J1) was 0,25-2 mg/kg/inj and the “Doses actives (T/C ≥ 125 %)” value (Leucémie L1210; traitement ip J1-9) was 0,03-0,8 mg/kg/inj. The “activité sur la leucémie L1210” value (Leucémie L1210; summary) was “très efficace”, the “nombre de cellules observées par champ de microscope” value (cellules de lignée HBL; 0.1µg/ml (f), 1j) was 402±100 ns and the “nombre de cellules observées par champ de microscope” value (cellules de lignée HBL; 0.1µg/ml (f), 2j) was 233± 36. For the same molecule, the “nombre de cellules observées par champ de microscope” value (cellules de lignée HBL; 0.1µg/ml (f), 3j) was 633± 83 ns, the “nombre de cellules observées par champ de microscope” value (cellules de lignée HBL; 0.1µg/ml (f), 4j) was 474±265 ns and the “nombre de cellules observées par champ de microscope” value (cellules de lignée HBL; 1µg/ml (M), 1j) was 282± 17 ns. For the same molecule, the “nombre de cellules observées par champ de microscope” value (cellules de lignée HBL; 1µg/ml (M), 2j) was 187± 35, the “nombre de cellules observées par champ de microscope” value (cellules de lignée HBL; 1µg/ml (M), 3j) was 199± 71 and the “nombre de cellules observées par champ de microscope” value (cellules de lignée HBL; 1µg/ml (M), 4j) was 197± 67. The “nombre de cellules observées par champ de microscope” value (cellules de lignée HBL; 10µg/ml (F), 1j) was 318± 83 ns, the “nombre de cellules observées par champ de microscope” value (cellules de lignée HBL; 10µg/ml (F), 2j) was 166± 28 and the “nombre de cellules observées par champ de microscope” value (cellules de lignée HBL; 10µg/ml (F), 3j) was 553±100 ns. The “nombre de cellules observées par champ de microscope” value (cellules de lignée HBL; 10µg/ml (F), 4j) was 210± 48 and the “croissance des cellules HBL” value (cellules de lignée HBL; à moyenne et forte dose, summary of tableau C BIS) was “ralentit faiblement la croissance”.
